As a reminder, the MIC is the smallest concentration in the dilution series that meets the test's criterion for growth inhibition.

≈ marks a conversion by molar mass, not a printed value.

These results are taken from ChEMBL document CHEMBL4831518, “Structure-aided optimization of non-nucleoside M. tuberculosis thymidylate kinase inhibitors” (Eur J Med Chem, 2021).

In test [1] the test system is Mycobacterium tuberculosis. Nature of the test: Antibacterial activity against Mycobacterium tuberculosis H37Rv harboring mmr deletion mutant assessed as inhibition of bacterial growth incubated for 6 hrs by microdilution assay. The class given is functional.
Test [2] deals with Mycobacterium tuberculosis. In words: Antibacterial activity against Mycobacterium tuberculosis H37Rv harboring Tap deletion mutant assessed as inhibition of bacterial growth incubated for 6 hrs by microdilution assay. Format: functional. Background: Broth dilution looks for growth in wells or tubes with falling amounts of substance.

Regarding `Cc1ccc(Oc2cccc(CN3CCC(n4cc(C)c(=O)[nH]c4=O)CC3)c2)cc1`, the MIC in test [1] and in test [2] was 15.6 µg/mL (≈ 38.5 µM) each time.

Regarding `Cc1cn(C2CCN(Cc3cccc(Oc4cc(Cl)cc(Cl)c4)c3)CC2)c(=O)[nH]c1=O`, the MIC in test [1] and in test [2] was 15.6 µg/mL (≈ 33.9 µM) each time.

On to `COc1ccc(Oc2cccc(CN3CCC(n4cc(C)c(=O)[nH]c4=O)CC3)c2)cc1`, for which the minimal inhibitory concentration (MIC) in test [1] stood at 15.6 µg/mL (≈ 37 µM); in test [2] it was 31.25 µg/mL (≈ 74.1 µM).

Consider `Cc1cn(C2CCN(Cc3cccc(Oc4ccccc4)n3)CC2)c(=O)[nH]c1=O`, for which the MIC in test [1] and in test [2] was over 250 µg/mL in each case.

Consider `Cc1cn(C2CCN(Cc3ccnc(Oc4cccc(Cl)c4)c3)CC2)c(=O)[nH]c1=O`, for which the minimal inhibitory concentration (MIC) in test [1] and in test [2] was 31.25 µg/mL (≈ 73.2 µM) throughout.
